Measured values published in patent US20070065471A1, “Cosmetic/dermatological applications of PPAR receptor activators” (GALDERMA RESEARCH & DEVELOPMENT S.N.C., priority 2003, published 2007).

How the values were obtained:
PPARs delta = target: T1, PPARs delta (Homo sapiens, UniProt Q03181); test: PPAR transactivation test, PPAR delta (HeLN reporter cells); type: cell-based; conditions: luciferase reporter, Gal-hPPAR delta, n.a. means not active, read-out: PPARs delta Kd app
T1 sequence (Q03181 171-441 limits assumed): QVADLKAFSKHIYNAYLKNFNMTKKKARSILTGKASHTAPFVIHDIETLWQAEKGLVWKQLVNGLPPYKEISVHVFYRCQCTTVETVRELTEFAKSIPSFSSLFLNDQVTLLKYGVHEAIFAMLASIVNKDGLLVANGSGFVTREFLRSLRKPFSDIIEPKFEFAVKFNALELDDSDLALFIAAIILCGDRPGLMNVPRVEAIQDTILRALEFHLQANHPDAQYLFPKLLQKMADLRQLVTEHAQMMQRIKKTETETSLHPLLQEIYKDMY
Description: (§1) Activation of the PPAR receptors with an agonist (activator) in HeLN cells leads to the expression of a reporter gene, luciferase, which, in the presence of a substrate, generates light. The modulation of the PPAR receptors is measured by quantifying the luminescence produced after incubating the cells in the presence of a reference agonist. The ligands displace the agonist from its site. The measurement of the activity is performed by quantifying the light produced. This measurement makes it possible to determine the modulatory activity of the compounds according to the invention by determining the constant that represents the affinity of the molecule for the PPAR receptor. This value can fluctuate according to the basal activity and the expression of the receptor: it is referred to as Kd apparent (KdApp in nM).
(§2) Measurements are also taken for the total agonist controls with the same products.
(§3) The HeLN cell lines used are stable transfectants comprising the plasmids ERE-βGlob-Luc-SV-Neo (reporter gene) and PPAR (α, δ, γ) Gal-hPPAR. These cells are inoculated in 96-well plates at a rate of 10,000 cells per well in 100 µl of DMEN medium without phenol red and supplemented with 10% defatted calf serum. The plates are then incubated at 37° C. and 7% CO2 for 16 hours.
(§4) The various dilutions of the test products and of the reference ligand are added in a proportion of 5 µl per well. The plates are then incubated for 18 hours at 37° C., 7% CO2. The culture medium is removed by upturning and 100 μl of a 1:1 PBS/luciferin mixture are added to each well. After 5 minutes, the plates are read using a luminescence reader.

PPAR gamma = target: T2, PPAR gamma (Homo sapiens, UniProt P37231); test: PPAR transactivation test, PPAR gamma (HeLN reporter cells); type: cell-based; conditions: luciferase reporter, Gal-hPPAR gamma, n.a. means not active, read-out: PPAR gamma Kd app
T2 sequence (P37231 238-505 limits assumed): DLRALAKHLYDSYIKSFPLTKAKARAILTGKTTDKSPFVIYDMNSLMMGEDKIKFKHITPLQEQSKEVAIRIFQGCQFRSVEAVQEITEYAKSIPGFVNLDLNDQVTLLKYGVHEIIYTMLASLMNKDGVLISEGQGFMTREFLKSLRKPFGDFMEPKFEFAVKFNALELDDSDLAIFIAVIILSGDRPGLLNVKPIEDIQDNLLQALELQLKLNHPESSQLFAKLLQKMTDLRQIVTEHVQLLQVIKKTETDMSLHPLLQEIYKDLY
Description: as §1, §2, §3, §4

sebaceous glands = test: Activity of PPAR activators on the size of sebaceous glands, daily topical application to rat back skin; type: in vivo, female Fuzzy or OFA rats; conditions: once daily 4 weeks, control (acetone) = 1.00
Description: The evaluation of the activity of the compounds according to the invention is performed by daily topical application (once a day, weekends included) to the skin of the back of female Fuzzy or OFA rats, for 4 weeks. 30 animals of 9/10 weeks old were divided into groups of 6 animals.
The evaluation method entails weighing the animals at the start and end of the test and in evaluating the size of the sebaceous glands on epidermal leaflets.
The animals are euthanized and the treated area (back) is then shaved and defatted. The 8 mm biopsy samples are then incubated in 1 M NaBr. After separating out the epidermis, photographs are taken of the sebaceous glands and the images obtained are then analyzed using the Tina software (quantification of the area of the sebaceous glands, arbitrary area unit [mm^2]), version 2.09 g sold by Raytest GmbH.
The statistical analysis is performed according to Student's t test (XL software sold by Microsoft)
The results are expressed as the mean of the inductions (“Mean RI”) with the value of the standard error of the mean (“SEM”).
Student's t test (“stat”): NS not significant • *p<0.05 • **p<0.01 • ***p<0.001

PPAR alpha = target: T3, PPAR alpha (Homo sapiens, UniProt Q07869); test: PPAR transactivation test, PPAR alpha (HeLN reporter cells); type: cell-based; conditions: luciferase reporter, Gal-hPPAR alpha, n.a. means not active, read-out: PPAR alpha Kd app
T3 sequence (Q07869 200-468 limits assumed): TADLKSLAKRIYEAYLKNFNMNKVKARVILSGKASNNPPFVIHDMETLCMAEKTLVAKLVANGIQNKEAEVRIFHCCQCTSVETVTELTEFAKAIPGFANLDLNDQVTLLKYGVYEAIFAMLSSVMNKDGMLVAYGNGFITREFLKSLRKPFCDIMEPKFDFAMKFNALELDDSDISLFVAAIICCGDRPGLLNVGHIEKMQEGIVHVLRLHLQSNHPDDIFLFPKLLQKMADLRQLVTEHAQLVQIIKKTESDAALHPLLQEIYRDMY
Description: as §1, §2
as §3, with “The plates are then incubated at 37° C. and 7% CO2 for 16 hours.” left out
The various dilutions of the test products and of the reference ligand are added in a proportion of 5 µl per well. […] After 5 minutes, the plates are read using a luminescence reader.

Structure (SMILES): CCCCCCCNC(=O)N(C)c1cccc(-c2ccc(C[C@H](Nc3ccccc3C(=O)c3ccccc3)C(=O)O)cc2)c1 [Example 3, (S)-3-[3′-(3-heptyl-1-methylureido)biphenyl4-yl]-2-[2-(1-phenylmethanoyl)phenylamino]-propionic acid]
- Kd (PPARs delta): 250 nM
- Kd (PPAR gamma): 15 nM
- Mean RI (sebaceous gland size) (sebaceous glands; Study 3, 0.01% topical): 1.02
- Mean RI (sebaceous gland size) (sebaceous glands; Study 3, 0.1% topical): 0.84
- Mean RI (sebaceous gland size) (sebaceous glands; Study 3, 1% topical): 0.74

Structure (SMILES): C[C@]12CCC(=O)CC1CCC1C2CC[C@@]2(C)C1CC[C@@H]2O (stereo partly drawn) [Positive Control, 5a-androstan-17β-ol-3-one, reference compound]
- Mean RI (sebaceous gland size) (sebaceous glands; Study 1, 0.3% topical): 1.73

Structure (SMILES): COCCOCOc1ccc2cc(C(=O)N(C)Cc3cccc(-c4ccc(Nc5ccccc5C(=O)O)cc4)c3)ccc2c1 [Example 6, 2-{3′-[({1-[6-(2-methoxyethoxymethoxy)-naphthalen-2-yl]methanoyl}methylamino)methyl]biphenyl-4-ylamino}benzoic acid]
- Kd (PPAR gamma): 30 nM

Structure (SMILES): CN(C)c1ccc(NC(=O)N(C)c2cccc(-c3ccc(C[C@H](Nc4ccccc4C(=O)c4ccccc4)C(=O)O)cc3)c2)cc1 [Example 7, (S)-3-{3′-[3(4-dimethylaminophenyl)-1-methylureido]biphenyl-4-yl}-2-[2-(1-phenylmethanoyl)-phenylamino]propionic acid]
- Kd (PPARs delta): 4000 nM
- Kd (PPAR gamma): 8 nM

Structure (SMILES): CCCOc1ccc2cc(C(=O)N(C)Cc3cccc(-c4ccc(CC5SC(=O)NC5=O)cc4)c3)ccc2c1 (centres unmarked) [Example 4, N-methyl-N-[4′-(2,4-dioxothiazolidin-5-yl-methyl)biphenyl-3-ylmethyl)-6-propoxynaphthalene-2-carboxamide]
- Kd (PPAR gamma): 1 nM

Structure (SMILES): COCCOCOc1ccc2cc(C(=O)N(C)Cc3cccc(-c4ccc(CC5SC(=O)NC5=O)cc4)c3)ccc2c1 (centres unmarked) [Example 2, N-methyl-N-[4′-(2,4-dioxothiazolidin-5-yl-methyl)biphenyl-3-ylmethyl]-6-(2-methoxyethoxymethoxy)-naphthalene-2-carboxamide]
- Kd (PPAR gamma): 0.5 nM
- Mean RI (sebaceous gland size) (sebaceous glands; Study 2, 0.003% topical): 0.82
- Mean RI (sebaceous gland size) (sebaceous glands; Study 2, 0.03% topical): 0.75
- Mean RI (sebaceous gland size) (sebaceous glands; Study 2, 0.3% topical): 0.65
- Mean RI (sebaceous gland size) (sebaceous glands; Study 3, 0.3% topical): 0.66
- Mean RI (sebaceous gland size) (sebaceous glands; Study 4, 0.3% topical): 0.67

Structure (SMILES): CCCc1nnc([C@H](Cc2ccc(OCCc3nc(-c4ccccc4)oc3C)cc2)Nc2ccccc2C(=O)c2ccccc2)o1 [Negative Control, 1-{2-[(S)-2-{4-[2-(5-methyl-2-phenyloxazol-4-yl)ethoxy]phenyl}-1-(5-propyl[1,3,4]oxadiazol-2-yl)ethylamino]phenyl}-1-phenylmethanone, reference compound]
- Mean RI (sebaceous gland size) (sebaceous glands; Study 4, 0.01% topical): 1.12
- Mean RI (sebaceous gland size) (sebaceous glands; Study 4, 0.1% topical): 1.08
- Mean RI (sebaceous gland size) (sebaceous glands; Study 4, 1% topical): 1.08

Structure (SMILES): CCCCCCCC(=O)N(C)Cc1cccc(-c2ccc(C[C@H](OCC)C(=O)O)cc2)c1 [Example 5, (S)-2-ethoxy-3-{3′-[(methyloctanoylamino)methyl]biphenyl-4-yl}propionic acid]
- Kd (PPAR alpha): 500 nM
- Kd (PPARs delta): 4000 nM
- Kd (PPAR gamma): 2 nM

Structure (SMILES): CN(CCOc1ccc(CC2SC(=O)NC2=O)cc1)c1ccccn1 (centres unmarked) [Example 1, 5-{4-[2-(methylpyrid-2-ylamino)ethoxy]-benzyl}thiazolidine-2,4-dione]
- Mean RI (sebaceous gland size) (sebaceous glands; Study 1, 0.1% topical): 0.73
- Mean RI (sebaceous gland size) (sebaceous glands; Study 1, 0.3% topical): 0.55
- Mean RI (sebaceous gland size) (sebaceous glands; Study 1, 1% topical): 0.51
- Mean RI (sebaceous gland size) (sebaceous glands; Study 2, 0.1% topical): 0.83
